From patent publication US11407717B2, “Benzimidazole derivatives and use thereof as IDH1 inhibitors” (KPC PHARMACEUTICALS, INC., priority 2018, dated 2022)
Read-outs that look alike come from different tables or passages of the source. Values belong to the compound of their own block, whether it stands above or below them.

What was measured:
IDH1 wt (wild type) = IDH1 wt (wild type) (Homo sapiens, UniProt O75874); assay: IDH1 in vitro enzyme activity test (IDH1 wild type); type: biochemical; settings: 65 μM isocitrate + 50 μM NADP
Experimental: (§1) The IDH1 mutant catalyzes the NADPH-dependent reduction of α-KG (α-ketoglutarate) to 2-HG (2-hydroxyglutarate), and the consumed NADPH can be read by fluorescence.
(§2) Basic reaction buffer: 50 mM KH2PO4, pH 7.5, 10 mM MgCl2, 10% glycerol, 150 mM NaCl, 0.05% BSA (bovine serum albumin), 2 mM b-ME (2-mercaptoethanol), 0.003% Brij35 (polyethylene glycol lauryl ether)
(§3) Substrates and cofactors: • IDH1 wt (wild type): 65 μM isocitrate+50 μM NADP • IDH1(R132H): 1500 μM α-KG+15 μM NADPH • IDH1(R132C): 500 μM α-KG+15 μM NADPH
(§4) 1.33× enzyme (no enzyme in the control well), buffer, and NADP or NADPH (control well) were added into the wells of the reaction plate. The test compound was dissolved in 100% DMSO and then added to the enzyme mixture (Echo550, nanoliter level), and incubated for 60 minutes after simple centrifugation. A mixture of 4× substrate and cofactor were added to start the reaction. After simple centrifugation, the plate was incubated under shaking at room temperature for 45 minutes. A mixture of 3× lipoamide dehydrogenase and Resazurin was prepared, added to the reaction solution to test the amount of NADPH generated or remaining, and incubated at room temperature for 10 minutes after simple centrifugation. Multifunctional microplate reader Envision was used to measure (Ex/Em=535/590 nm).

[1] = system: U87MG-IDH1-R132H cell strain; assay: IDH1 cytological activity test, 2HG content in cell culture supernatant by LC-MS; type: cell-based; settings: Homo sapiens, U-87 MG, 72 h; 2-HG in supernatant, 3 days incubation
Experimental: In this study, the compound was incubated with the IDH1 mutant cell line, and the 2HG content in the cell culture supernatant was detected by LC-MS to determine the inhibitory activity of the compound on the IDH1 mutant. IDH1 catalyzes the […] of isocitrate to α-ketoglutarate (α-KG) in organisms, and the IDH1 mutant further catalyzes the reduction of α-KG to 2-hydroxyglutarate (2HG). The U87MG-IDH1-R132H cell strain is a stable transfected cell strain that can stably express IDH1-R132H mutant, obtained via screening by transfecting U87MG cells with IDH1-R132H, and the HT1080 cell strain contains an endogenous IDH1-R132C mutant. 1) The compound was diluted 3-fold with DMSO and then added to the cell culture plate, at a total of 10 concentrations, double duplicate holes for each concentration. The negative control well contains only DMSO, and the positive control well contained BAY1436032 at a final concentration of 5 μM. The final concentration of DMSO in all wells was 0.5%. 2) The IDH1 mutant cell line was seeded into a cell culture plate containing the compound at a density of 40,000 cells/well. The cells were incubated with the compound in a incubator at 37° C., 5% CO2 for 3 days. […]

IDH1(R132H) = IDH1(R132H) (Homo sapiens, UniProt O75874, R132H); assay: IDH1 in vitro enzyme activity test (IDH1 R132H); type: biochemical; settings: 1500 μM α-KG + 15 μM NADPH
Experimental: as §1, §2, §3, §4

IDH1(R132C) = IDH1(R132C) (Homo sapiens, UniProt O75874, R132C); assay: IDH1 in vitro enzyme activity test (IDH1 R132C); type: biochemical; settings: 500 μM α-KG + 15 μM NADPH
Experimental: as §1, §2, §3, §4

[2] = Evaluation of pharmacokinetics in mice; type: in vivo, CD-1 mice; settings: for AUC(0-t): read-out: Area under curve AUC0-last
Experimental: 1) Experimental drug: Example 6;
2) Experimental animals: 8 male CD-1 mice aged 7-10 weeks, divided into 2 groups, 4 in each group;
3) Drug preparation: for the tail vein injection group, an appropriate amount of the drug was weighted, and dissolved in a mixed solvent of DMSO: 20% hydroxypropyl betacyclodextrin (HPbCD)=10:90 to prepare a 0.5 mg/mL solution; for the intragastric administration group, an appropriate amount of the drug was weighted, and dissolved in DMSO: polyoxyethylene castor oil EL (Cremophor EL):5% sulfobutyl cyclodextrin (Captisol)=5:10:85 to prepare a suspension.
Animals in group 1 were given a single injection of the drug at a dose of 1 mg/kg and a concentration of 0.5 mg/mL via tail vein, and animals in group 2 were given a compound at a dose of 20 mg/kg and a concentration of 2 mg/mL via gavage. Plasma samples were cross-collected from the animals at 0.0833 (tail vein injection group only), 0.25, 0.5, 1, 2, 4, 6, 8 and 24 hours after administration. The LC-MS/MS method was used to determine the drug concentration in the plasma sample, and the kinetic parameters of the tested drug are shown in Table 4: […]

IDH1(R132H), sequence (O75874 whole entry R132H): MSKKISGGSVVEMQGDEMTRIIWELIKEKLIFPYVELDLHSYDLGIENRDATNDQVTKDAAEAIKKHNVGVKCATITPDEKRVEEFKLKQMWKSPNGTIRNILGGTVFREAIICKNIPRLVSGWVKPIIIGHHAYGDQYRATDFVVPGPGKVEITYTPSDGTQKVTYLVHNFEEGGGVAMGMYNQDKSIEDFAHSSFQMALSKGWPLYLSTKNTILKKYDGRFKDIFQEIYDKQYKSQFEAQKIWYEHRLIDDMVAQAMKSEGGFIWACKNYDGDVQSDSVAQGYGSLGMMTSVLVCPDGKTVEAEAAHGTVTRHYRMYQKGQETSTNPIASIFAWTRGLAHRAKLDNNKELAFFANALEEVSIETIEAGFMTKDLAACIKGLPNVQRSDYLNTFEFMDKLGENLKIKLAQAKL
IDH1 wt (wild type), sequence (O75874 whole entry): as the sequence (O75874 whole entry R132H) above, with H132R counted along it
IDH1(R132C), sequence (O75874 whole entry R132C): as the sequence (O75874 whole entry R132H) above, with H132C counted along it

- IC50 (IDH1 wt (wild type)): > 10 µM
- IC50 [1]: 0.0927 µM
- IC50 (IDH1(R132H)): 0.0079 µM
- IC50 (IDH1(R132C)): 0.102 µM
SMILES: C[C@H](c1ccccc1)n1c(Nc2ccc(OC(F)(F)F)cc2)nc2cc(CCC(=O)O)ccc21 [Example 1]

- IC50 (IDH1(R132H)): 0.465 µM
SMILES: C[C@@H](c1ccccc1)n1c(Nc2ccc(OC(F)(F)F)cc2)nc2cc(CCC(=O)O)ccc21 [Example 2]

- IC50 (IDH1(R132H)): 0.32 µM
SMILES: C[C@H](c1ccc(Cl)cc1)n1c(Nc2ccc(OC(F)(F)F)cc2)nc2cc(CCC(=O)O)ccc21 [Example 3]

- IC50 (IDH1(R132H)): 0.126 µM
SMILES: C[C@H](c1ccc(F)cc1)n1c(Nc2ccc(OC(F)(F)F)cc2)nc2cc(CCC(=O)O)ccc21 [Example 4]

- IC50 (IDH1(R132H)): 0.0895 µM
SMILES: CC[C@H](c1ccccc1)n1c(Nc2ccc(OC(F)(F)F)cc2)nc2cc(CCC(=O)O)ccc21 [Example 5]

- IC50 (IDH1 wt (wild type)): > 10 µM
- IC50 [1]: 0.0382 µM
- IC50 (IDH1(R132H)): 0.00394 µM
- pharmacokinetic properties in mice (in words) ([2]; mice): good pharmacokinetic properties
- AUC(0-t) ([2]; mouse, iv, male CD-1 mice, tail vein injection, 1 mg/kg, plasma): 15.5 µM·h
- C0 ([2]; mouse, iv, male CD-1 mice, tail vein injection, 1 mg/kg, plasma, read-out: Initial concentration C0): 3.54 µM
- clearance ([2]; mouse, plasma, iv, male CD-1 mice, tail vein injection, 1 mg/kg, read-out: Clearance Cl): 2.17 mL/min/kg
- half-life ([2]; mouse, plasma, iv, male CD-1 mice, tail vein injection, 1 mg/kg, read-out: Half-life T1/2 (converted)): 2.9 h
- Vd ([2]; mouse, plasma, iv, male CD-1 mice, tail vein injection, 1 mg/kg, read-out: Volume of distribution Vd): 0.69 L/kg
- bioavailability ([2]; mouse, plasma, po, male CD-1 mice, intragastric 20 mg/kg vs tail vein 1 mg/kg, read-out: Bioavailability F): 99.1%
- Tmax ([2]; mouse, plasma, po, male CD-1 mice, intragastric administration, 20 mg/kg, read-out: Time of highest concentration T1/2 (converted)): 1 h
- AUC(0-t) ([2]; mouse, po, male CD-1 mice, intragastric administration, 20 mg/kg, plasma): 307 µM·h
- Cmax ([2]; mouse, po, male CD-1 mice, intragastric administration, 20 mg/kg, plasma, read-out: Highest concentration Cmax): 33.4 µM
- IC50 (IDH1(R132C)): 0.0128 µM
SMILES: O=C(O)CCc1ccc2c(c1)nc(Nc1ccc(OC(F)(F)F)cc1)n2[C@@H]1CCCc2ccccc21 [Example 6]

- IC50 (IDH1(R132H)): 0.121 µM
SMILES: C[C@H](c1cccc(Cl)c1)n1c(Nc2ccc(OC(F)(F)F)cc2)nc2cc(CCC(=O)O)ccc21 [Example 7]

- IC50 (IDH1(R132H)): 0.00288 µM
SMILES: O=C(O)CCc1ccc2c(c1)nc(Nc1ccc(OC(F)(F)F)cc1)n2[C@@H]1CCc2ccccc21 [Example 8]

- IC50 (IDH1(R132H)): 0.0219 µM
SMILES: O=C(O)CCc1ccc2c(c1)nc(Nc1ccc(OC(F)(F)F)cc1)n2C(c1ccccc1)c1ccccc1 [Example 9]

- IC50 (IDH1(R132H)): 0.344 µM
SMILES: COc1ccccc1[C@@H](C)n1c(Nc2ccc(OC(F)(F)F)cc2)nc2cc(CCC(=O)O)ccc21 [Example 10]

- IC50 (IDH1(R132H)): 0.0245 µM
SMILES: CC(C)(C)[C@H](c1ccccc1)n1c(Nc2ccc(OC(F)(F)F)cc2)nc2cc(CCC(=O)O)ccc21 [Example 11]

- IC50 (IDH1(R132H)): 0.0157 µM
SMILES: O=C(O)CCc1ccc2c(c1)nc(Nc1ccc(OC(F)(F)F)cc1)n2[C@@H](c1ccccc1)C1CC1 [Example 12]
